Reference: patent publication US6649610B1, “2-oxo-1, 4-benzoxazine compounds for treatment of tuberculosis” (priority 2001, dated 2003)

Legend:
[1] = Animal toxicity bioassay (acute toxicity, intraperitoneal); format: in vivo; details: both sexes, mouse, in vivo, ip; white mice, intraperitoneal injection, observed 14 days
Experimental: (§1) Animal Toxicity Bioassay. Acute toxicity was studied on white mice of both sexes with weight ranging between 18-26 grams under intraperitoneal injection of 2% solution of tested compound in starch (the compound was dissolved in starch slime and injected) on the basis of 0.1 ml of solution per 10 g of the animal weight. Each dose was tested on the group of 6 animals that were observed during 14 day period. (This method was approved by the Pharmacology committee of Russian Ministry of Health and has been widely used since 1968.) Averaged lethal dose (LD50) of the compound was computed using results of experiments on 5-7 groups of animals using the method of Litchfield and Wilkinson. (Belenkii M. L. “Elements of quantative determination of the pharmacological effect,” Leningrad, 1963, 71 pages).

[2] = tested on: M. tuberculosis ATCC 25177; test: BACTEC 460 radiometric growth inhibition bio-assay; format: cell-based, Mycobacterium tuberculosis; details: final concentration of 0.1 mg/ml; BACTEC 12B medium; growth index
[3] = tested on: human and non-human myeloma; test: Activity against myeloma
white mice = test: Animal toxicity bioassay (acute toxicity, intraperitoneal); format: in vivo; details: intraperitoneal injection, observed 14 days
Experimental: as §1

man = details: cited from earlier work
white mouse = details: intraperitoneal injection; cited from earlier work

Row | Compound | LD50 at 14 day [1] [mg/kg] | percent activity against Mycobacterium tuberculosis [2] [%] | activity against human and non-human myeloma [3] [%] | LD50 (white mice) [mg/kg] | acute ingestion amount leading to mild toxicity (man; adults, acute ingestion) [g] | ingestion amount that may be fatal (man; adults, acute ingestion) [g] | ingestion amount usually fatal if not appropriately treated (man; adults, acute ingestion) [g] | overall mortality rate for acute isoniazid toxicity (man; estimated) [%] | hepatitis-related death rate (man; individuals who complete a full course of prophylaxis) | mortality rate (man; individuals who develop overt isoniazid-induced hepatitis) [%] | LCL0 (lowest published lethal concentration) (man; man) [mg/kg] | overall hepatitis-related death rate (man; patients using isoniazid prophylaxis) | LD50 (lethal dose 50 percent kill) (white mouse) [mg/kg]
1 | COc1ccc(C(=O)C(C(=O)Oc2c(C)cc(C)cc2C)=C2Nc3ccccc3OC2=O)cc1 [1F-19, 2,4,6-trimethylphenyl 2-(3,4-dihydro-2-oxo-2H-1,4-benzoxazin-3-ylidene)-3-p-methoxyphenyl-3-oxo-propanoate] | > 1000 | 97 | – | – | – | – | – | – | – | – | – | – | –
2 | O=C(Oc1c(-c2nc3ccccc3oc2=O)c(=O)n2c(c1C(=O)c1ccccc1)c(=O)oc1ccccc12)c1ccccc1 [1F-18, 4-benzoyl-3-benzoyloxy-2-(2-oxo-2H-1,4-benzoxazin-3-yl)pyrido[2,1-c][1,4]benzoxazin-1,5-dione] | – | 95 | 100 | > 2000 | – | – | – | – | – | – | – | – | –
3 | NNC(=O)c1ccncc1 [isoniazid, isonicotinic acid hydrazide] | – | – | – | – | 1.5 | 6 to 10 | 15 | 19 | 23.2-57.9 /100,000 | 10 | 100 | approximately 0.001% | 100
